Data published in patent publication US4376119A, “Benzothiazine derivative” (priority 1981, dated 1983).
Where two headings read alike, the source gives them in different places.

Key:
[1] = test system: carrageenin-induced edema; assay: Duration of anti-inflammatory activity (carrageenin edema, varied premedication time); format: in vivo, rat (male, Wistar strain); details: for Rate of suppression of edema: dose = ED50
Description: The premedication time was defined as the time interval between the administration of a test compound and the injection of carrageenin.

mice = assay: in vivo; details: for Number of deaths/total number of test animals: p.o.
Procedure: (§1) A test compound was suspended in a 0.2% carboxymethyl cellulose solution and orally administered in a dose of 0.1 ml/10 g of body weight. […] The LD50 value was calculated on the basis of the death rates on the final day.

in vivo = details: mouse, in vivo, po
Procedure: as §1

[2] = test system: carrageenin-induced edema; assay: Carrageenin-induced edema suppression in rats (anti-inflammatory activity); format: in vivo, rat (male, Wistar strain); details: for ED50: read-out: Anti-inflammatory activity, ED50
Procedure: Anti-inflammatory activity was tested as follows: Male rats of the Wistar strain were used in groups of 7. A test compound was suspended in a 0.2% carboxymethyl cellulose solution and orally administered in a dose of 0.5 ml/100 g of body weight. […] Three hours after injection of carrageenin, each rat was sacrificed by ether. The feet of both hind legs were amputated at the ankle joint and weighed to detect the difference in weight between both feet. Then, the ability of the test compound to suppress the carrageenin-induced edema was evaluated by comparing the foot weight difference of the test group with that of a control group (consisting of rats to which the solvent alone was administered). Specifically, the rate of suppression of the edema was calculated according to the following equation: [formula]

[3] = cited from earlier work
[4] = Incidence of gastric disorders (erosion) in rats; details: rat, in vivo, po
Procedure: (§2) The incidence of gastric disorders in rats was tested as follows: Eight-weeks-old male rats of the Wistar strain were used in groups of 5 to 7. After they were fasted for 18 hours or more, a test compound was administered orally. Six hours later, each rat was sacrificed by decapitation. The stomach was removed, filled with 10 ml of physiological saline, and then fixed in 5% formalin. After about 10 minutes, the stomach was incised through the greater curvature and the presence or absence of gastric disorders (in particular, erosion) was examined by visual observation. According to Litchfield-Wilcoxon's method, the dose causing erosion to occur in 50% of the test animals, UD50, was calculated on an all-or-none basis.

[5] = test system: stomach (gastric disorders, erosion); assay: Incidence of gastric disorders (erosion) in rats; details: Table 1; ratio of UD50 (gastric) to ED50 (edema)
Procedure: as §2

[6] = Table 1; literature value: Pharmacometrics, 6(6), 1285 (1972) for indomethacin; Folia Pharmacologica Japonica, 69, 319 (1973) for diclofenac; cited from earlier work
[7] = 3 h, Table 1, rat, oral, carrageenin edema
[8] = Rattus norvegicus, po, 3 h, 1.25 mg/kg, p.o., read-out: Rate of suppression of edema
[9] = Rattus norvegicus, po, 3 h, 2.5 mg/kg, p.o., read-out: Rate of suppression of edema
[10] = Rattus norvegicus, po, 3 h, 5.0 mg/kg, p.o., read-out: Rate of suppression of edema
[11] = Rattus norvegicus, po, 3 h, p.o., read-out: Rate of suppression of edema
[12] = Rattus norvegicus, po, 3 h, read-out: Rate of suppression of edema

Compound | Rate of suppression of edema ([1]; premedicated 1 hr.) [%] | Rate of suppression of edema ([1]; premedicated 3 hr.) [%] | Rate of suppression of edema ([1]; premedicated 6 hr.) [%] | Rate of suppression of edema ([1]; premedicated 12 hr.) [%] | Rate of suppression of edema ([1]; premedicated 24 hr.) [%] | Rate of suppression of edema ([1]; premedicated 48 hr.) [%] | LD50 at 168 h (in vivo) [mg/kg] | ED50 [2, 7] [mg/kg] | Anti-inflammatory activity (in words) ([3]; prior art) | TD50 at 6 h [4] [mg/kg] | also measured
CN1C(C(=O)Nc2nccs2)C(=O)c2ccccc2S1(=O)=O (stereo not shown) [Sudoxicam, 3,4-dihydro-2-methyl-4-oxo-N-(2-thiazolyl)-2H-1,2-benzothiazine-3-carboxamide 1,1-dioxide] | 49.8 | 52.1 | 39.5 | 31.6 | 10.4 | -2.4 | 500 | 5.1 | potent and long-lasting anti-inflammatory activity | 11.8 | Number of deaths/total number of test animals (mice; 200 mg/kg): 0/5; Number of deaths/total number of test animals (mice; 400 mg/kg): 2/5; Number of deaths/total number of test animals (mice; 800 mg/kg): 4/5; Number of deaths/total number of test animals (mice; 1,000 mg/kg): 5/5; Therapeutic index and safety margin (in words) (mice; from Table 1): superior in therapeutic index and safety margin to indomethacin and diclofenac; selectivity ratio (in vivo): 98; inhibition in vivo at 1.25 mg/kg [2, 8]: 14.9%; inhibition in vivo at 2.5 mg/kg [2, 9]: 30.7%; inhibition in vivo at 5 mg/kg [2, 10]: 45.5%; inhibition in vivo at 10 mg/kg ([2]; Rattus norvegicus, po, 3 h, 10.0 mg/kg, p.o., read-out: Rate of suppression of edema): 69.3%; Degree of toxicity and incidence of gastric disorders (in words) ([3]; prior art): not appreciably different from those of indomethacin and diclofenac; Therapeutic index, UD50/ED50 [5]: 2.3
CN1C(C(=O)Nc2cccc(F)n2)C(=O)c2ccccc2S1(=O)=O (stereo not shown) [Compound of formula (1), N-(6-fluoro-2-pyridyl)-3,4-dihydro-2-methyl-4-oxo-2H-1,2-benzothiazine-3-carboxamide 1,1-dioxide] | 56.6 | 54.8 | 43.2 | 39.1 | 20.7 | 3.4 | > 5000 | 7.5 | – | 297 | Duration of anti-inflammatory activity (in words) ([1]; from Table 3): excellent in the duration of anti-inflammatory activity; Number of deaths/total number of test animals (mice; 3,000 mg/kg): 0/5; Number of deaths/total number of test animals (mice; 4,000 mg/kg): 0/5; Number of deaths/total number of test animals (mice; 5,000 mg/kg): 0/5; Acute toxicity, LD50 (mice; Table 1, mouse, oral, 7 days): > 5,000 mg/kg; Degree of safety (in words) (mice; mouse, in vivo): very high degree of safety; inhibition in vivo at 2 mg/kg ([2]; Rattus norvegicus, po, 3 h, 2.0 mg/kg, p.o., read-out: Rate of suppression of edema): 20%; inhibition in vivo at 4 mg/kg ([2]; Rattus norvegicus, po, 3 h, 4.0 mg/kg, p.o., read-out: Rate of suppression of edema): 32%; inhibition in vivo at 8 mg/kg ([2]; Rattus norvegicus, po, 3 h, 8.0 mg/kg, p.o., read-out: Rate of suppression of edema): 54.6%; inhibition in vivo at 16 mg/kg ([2]; Rattus norvegicus, po, 3 h, 16.0 mg/kg, p.o., read-out: Rate of suppression of edema): 66.6%; Anti-inflammatory activity (in words) ([2]; summary of results): potent and long-lasting anti-inflammatory activity
CN1C(C(=O)Nc2ccc(Cl)cn2)C(=O)c2ccccc2S1(=O)=O (stereo not shown) [5-Chloro-2-pyridyl compound, N-(5-chloro-2-pyridyl)-3,4-dihydro-2-methyl-4-oxo-2H-1,2-benzothiazine-3-carboxamide 1,1-dioxide] | – | – | – | – | – | – | – | – | – | – | inhibition in vivo at 6.5 mg/kg [2, 11]: 18.9%
CN1C(C(=O)Nc2ccccn2)C(=O)c2ccccc2S1(=O)=O (stereo not shown) [Piroxicam, 3,4-dihydro-2-methyl-4-oxo-N-(2-pyridyl)-2H-1,2-benzothiazine-3-carboxamide 1,1-dioxide] | 57.6 | 55.3 | 40.0 | 38.8 | 15.3 | 1.7 | 490 | 1.75 | potent and long-lasting anti-inflammatory activity | 8.2 | inhibition in vivo at 0.625 mg/kg ([2]; Rattus norvegicus, po, 3 h, 0.625 mg/kg, p.o., read-out: Rate of suppression of edema): 26.9%; inhibition in vivo at 1.25 mg/kg [2, 8]: 42.5%; inhibition in vivo at 2.5 mg/kg [2, 9]: 57%; inhibition in vivo at 5 mg/kg [2, 10]: 76.4%; Degree of toxicity and incidence of gastric disorders (in words) ([3]; in vivo): not appreciably different from those of indomethacin and diclofenac
COc1ccc2c(c1)c(CC(=O)O)c(C)n2C(=O)c1ccc(Cl)cc1 [Indomethacin, indomethacin] | 49.4 | 57.6 | 29.4 | 18.8 | -3.5 | – | – | – | – | 5.4 | selectivity ratio (in vivo): 3.7; ED50 ([2]; Rattus norvegicus, po, 3 h): 4.6 mg/kg; inhibition in vivo at 1.25 mg/kg [2, 12]: 19.3%; inhibition in vivo at 2.5 mg/kg [2, 12]: 22.8%; inhibition in vivo at 5 mg/kg [2, 12]: 57.4%; inhibition in vivo at 10 mg/kg [2, 12]: 73.3%; Therapeutic index, UD50/ED50 [5]: 1.2; Acute toxicity, LD50 [6]: 17 mg/kg
O=C(O)Cc1ccccc1Nc1c(Cl)cccc1Cl [Diclofenac, diclofenac] | 45.9 | 24.7 | 17.6 | – | -1.2 | – | – | – | – | 9.2 | ED50 ([2]; Rattus norvegicus, po, 3 h): 5 mg/kg; inhibition in vivo at 2.5 mg/kg [2, 12]: 29.7%; inhibition in vivo at 5 mg/kg [2, 12]: 48.5%; inhibition in vivo at 10 mg/kg [2, 12]: 69.3%
Cc1cc(NC(=O)C2C(=O)c3ccccc3S(=O)(=O)N2C)no1 (stereo not shown) [Isoxicam, 3,4-dihydro-2-methyl-N-(5-methyl-3-isoxazolyl)-4-oxo-2H-1,2-benzothiazine-3-carboxamide 1,1-dioxide] | 54.2 | 54.2 | 45.8 | 36.3 | 19.5 | 1.1 | 5000 | 15.5 | lower than that of Piroxicam and Sudoxicam | 250 | inhibition in vivo at 3.75 mg/kg ([2]; Rattus norvegicus, po, 3 h, 3.75 mg/kg, p.o., read-out: Rate of suppression of edema): 7.5%; inhibition in vivo at 7.5 mg/kg ([2]; Rattus norvegicus, po, 3 h, 7.5 mg/kg, p.o., read-out: Rate of suppression of edema): 32.3%; inhibition in vivo at 15 mg/kg ([2]; Rattus norvegicus, po, 3 h, 15.0 mg/kg, p.o., read-out: Rate of suppression of edema): 46.8%; inhibition in vivo at 30 mg/kg ([2]; Rattus norvegicus, po, 3 h, 30.0 mg/kg, p.o., read-out: Rate of suppression of edema): 69.4%; Degree of toxicity and incidence of gastric disorders (in words) ([3]; in vivo): relatively low
Cc1cccc(NC(=O)C2C(=O)c3ccccc3S(=O)(=O)N2C)n1 (stereo not shown) [6-Methyl-2-pyridyl compound, N-(6-methyl-2-pyridyl)-3,4-dihydro-2-methyl-4-oxo-2H-1,2-benzothiazine-3-carboxamide 1,1-dioxide] | – | – | – | – | – | – | – | 4.5 | – | 5.1 | inhibition in vivo at 1.75 mg/kg ([2]; Rattus norvegicus, po, 3 h, 1.75 mg/kg, p.o., read-out: Rate of suppression of edema): 27.4%; inhibition in vivo at 6.5 mg/kg [2, 11]: 58.9%
